System: dopaminergic neuronal cell line
Experiment: High Glutamate-Induced Oxidative Stress Assay (HGOS)
Type: cell-based
Conditions: Mus musculus; 30 mM glutamate, 16 h, Cell Tracker Green; read-out: protection against HGOS cell injury and cell death with an EC50
Excerpt: Protection against redox stress can be evaluated in cell culture using high glutamate induced oxidative stress (HGOS) in mouse dopaminergic cell lines. The cytotoxic effect of glutamate is not due to excitotoxicity, as this cell line is devoid of inotropic glutamate receptors. Rather, the glutamate-induced toxicity of dopaminergic cells is associated with an inhibition of cystne transport which subsequently leads to depletion of intracellular glutathione (GSH) levels (Murphy T. H., et al. Neuron, Vol. 2 (1989), pp. 1547-1558), activation of neuronal 12-Lipoxygenase (Li, Y. et al. Neuron, Vol. 19 (1997), pp. 453-463), increased ROS production (Tan S. et al. J. Cell Biol., Vol. 141 (1998), pp. 1423-1432) and elevated intracellular Ca^2+ (Li, Y. et al. see supra). Some molecules were measured for their ability to protect cells against glutamate-induced stress and the assay is detailed in Examples.
This procedure was used to induce high glutamate-induced oxidative stress (HGOS) in a dopaminergic neuronal cell line. Using this assay the potency and efficacy of test articles against HGOS neuronal cell injury and cell death was established in a high throughput manner.
• Dopaminergic neuronal cell lines • DMEM-No Glucose (Life Technologies Cat # 11966-025) • L-glutamine (Life Technologies Cat # 25030-081) • L-glutamic acid, monosodium salt (Sigma Cat # G5889) • D-glucose (Sigma Cat # G-6151) • 10×HBSS buffer(pH 7.4) (950 mL Pyrogen-free water, 2.44 g/L MgCl2.6H20, 3.73 g/L KCl, 59.58 g/L Hepes, 58.44 g/L NaCI, 1.36 g/L KH2PO4, 1.91 g/L CaCl2.2H2O and pH to […] with HCl) • Cell Tracker Green fluorescent dye (Molecular Probes, Cat # 2925). Prepare a 5 μM solution in pre-warmed HBSS just prior to use. • Sterile 96-well plates pre-coated with poly-D-lysine (Corning Catalog # 3665) • 96-well deep well mother plate, DyNA Block 1000 (VWR Catalog # 40002-008) Neuronal Cells
The cells were seeded into 96-well plates at a density of 2000 per well and left to grow for 72 hours in a 33° C. incubator with 5% CO2 in air atmosphere. […]

Row | SMILES | EC50 [µM]
1 | Cc1c(C)c2c(c(C)c1O)CCC1(CC1)O2 [5,7,8-trimethyl-3,4-dihydrospiro[chromene-2,1′-cyclopropan]-6-ol] | < 1
2 | Cc1c(C)c2c(c(Cl)c1O)CCC1(CCC1)O2 [5-chloro-7,8-dimethyl-3,4-dihydrospiro[chromene-2,1′-cyclobutan]-6-ol] | < 1
3 | Cc1c(C)c2c(c(C)c1O)C1(CCC1)CCS2 [5′,7′,8′-trimethyl-2′,3′-dihydrospiro[cyclobutane, 1,4′-thiochromen]-6′-ol] | < 1

— patent publication US7576094B2, “Spiro derivatives as lipoxygenase inhibitors” (Eli Lilly and Company, priority 2004, dated 2009)
